Source: US20260265262A1, “CDK2 INHIBITORS AND METHODS OF USING THE SAME” (Cedilla Therapeutics, Inc., priority 2022, published 2026)

How the values were obtained:
Kuramochi cells = experiment: IncuCyte cell proliferation assay; assay type: cell-based; conditions: Kuramochi cells labeled with mApple-H2B, cell count 0 to 72 hours, 20 μM top concentration; read-out: IncuCyte Kuramochi RB-WT: IC50
Description: IncuCyte® assay was used to measure the effect of disclosed compounds on cell proliferation. Fluorescent microscopy images of cells were taken immediately after compound treatment and 72 hours later. Image analysis software was used to obtain cell counts as a function of compound concentration. Kuramochi cells labeled with mApple-H2B were seeded on 384-well assay-ready plates. Plates were placed in an IncuCyte® (Sartorius) and scanned at 0 and 72 hours. IncuCyte® software was used to count the number of fluorescent nuclei in each well. The fold change in cell count from 0 to 72 hours in wells treated with increasing compounds concentrations (10 pts, 1/2 log dilution, 20 μM top concentration) was normalized to DMSO control wells. The normalized cell counts were fit with dose response curves and a […] was calculated.

CDK2/Cyclin E1 = CDK2/Cyclin E1 (Homo sapiens, UniProt P24941); experiment: ADP-Glo Luminescent Kinase Assay (CDK2/E1-37C); assay type: biochemical; conditions: 0.18 nM CDK2/Cyclin E1, 100 μM ATP, 1.5 μM Histone H1, 37° C., 60 min pre-incubation; read-out: ADPGLO (CDK2/E1-37C): IC50
Description: Inhibition of CDK2/Cyclin E1 activity by the presence of small molecules was evaluated using ADP-Glo Luminescent Kinase Assay (Promega). Activated CDK2/Cyclin E1 was incubated with its substrate Histone H1 (SignalChem H10-54N) in the kinase reaction buffer (100 μM ATP, 50 mM HEPES pH 7.5, 10 mM MgCl2, 1 mM EDTA, 2 mM DTT, 0.01% Brij35, 0.5 mg/mL BSA). Luminescence was recorded with an Envision plate reader (PerkinElmer).
Dose titrations of inhibitors in 100% DMSO were combined with 0.36 nM CDK2/Cyclin E1 in reaction buffer. The mixtures were incubated for 60 minutes at 37° C. before the addition of ATP and Histone H1 substrate to initiate the kinase reaction. The final conditions were 0.18 nM CDK2/Cyclin E1, 100 μM ATP, and 1.5 μM Histone H1. The reactions were incubated at 37° C. for 90 minutes before being stopped with the addition of ADP-Glo reagent. This mixture was incubated at room temperature for 60 minutes before Kinase Detection Solution is added to generate luminescence. The stopped reactions were analyzed on an Envision plate reader. The conversion ratios were normalized to yield % activity, plotted against compound concentration, and fit to a four-parameter equation to determine the IC50 for each compound.

| Structure (SMILES) | IC50 (CDK2/Cyclin E1) [µM] | IC50 (Kuramochi cells) [µM] |
| --- | --- | --- |
| C[C@@H](OCC12CCC(CC1)OC2)[C@H](NC(=O)[C@@H]1CN(C(=O)c2cnc(O)cn2)CC12CN(C(=O)C1(C(F)(F)F)CC1)C2)C(=O)N1CCC(c2ccc(C(F)(F)F)cc2C(=O)O)CC1 [Example I-1, 2-(1-(O-((2-oxabicyclo[2.2.2]octan-4-yl)methyl)-N—((S)-6-(5-hydroxypyrazine-2-carbonyl)-2-(1-(trifluoromethyl)cyclopropane-1-carbonyl)-2,6-diazaspiro[3.4]octane-8-carbonyl)-L-threonyl)piperidin-4-yl)-5-(trifluoromethyl)benzoic acid] | < 0.5 | > 20 |
| CC1(C)C[C@@H]1C(=O)N1CC2(CN(C(=O)c3cncs3)C[C@H]2C(=O)N2CCC[C@@H](N(CC(=O)NS(C)(=O)=O)CC3CCCCC3)C2)C1 [Example I-70, 2-((cyclohexylmethyl)((R)-1-((S)-2-((S)-2,2-dimethylcyclopropane-1-carbonyl)-6-(thiazole-5-carbonyl)-2,6-diazaspiro[3.4]octane-8-carbonyl)piperidin-3-yl)amino)-N-(methylsulfonyl)acetamide] | > 10 | > 20 |
| Cc1oc(=O)oc1COC(=O)C(C)(C)CNC(=O)[C@@H](NC(=O)[C@@H]1CN(C(=O)c2cnn(Cc3ccccc3)c2)CC12CN(C(=O)[C@H]1CC1(C)C)C2)[C@@H](C)OCC1CCCCC1 [Example I-32, (5-methyl-2-oxo-1,3-dioxol-4-yl)methyl 3-((2S,3R)-2-((S)-6-(1-benzyl-1H-pyrazole-4-carbonyl)-2-((S)-2,2-dimethylcyclopropane-1-carbonyl)-2,6-diazaspiro[3.4]octane-8-carboxamido)-3-(cyclohexylmethoxy)butanamido)-2,2-dimethylpropanoate] | < 0.5 | 5 to 20 |
| C[C@@H](OCC1CCOCC1)[C@H](NC(=O)[C@@H]1CN(C(=O)c2cnn(Cc3ccc(C(F)(F)F)cc3)c2)CC12CN(C(=O)C1(C(F)(F)F)CC1)C2)C(=O)N1CCC(c2nccs2)CC1 [Example I-79, (S)—N-((2S,3R)-1-oxo-3-((tetrahydro-2H-pyran-4-yl)methoxy)-1-(4-(thiazol-2-yl)piperidin-1-yl)butan-2-yl)-6-(1-(4-(trifluoromethyl)benzyl)-1H-pyrazole-4-carbonyl)-2-(1-(trifluoromethyl)cyclopropane-1-carbonyl)-2,6-diazaspiro[3.4]octane-8-carboxamide] | < 0.5 | 0.5 to 5 |
| C[C@@H](OCC1CCCCC1)[C@H](NC(=O)[C@@H]1CN(C(=O)c2cnn(Cc3ccccc3)c2)CC12CN(C(=O)[C@H]1CC1(C)C)C2)C(=O)NCCC(=O)NS(C)(=O)=O [Example I-33, (S)-6-(1-benzyl-1H-pyrazole-4-carbonyl)-N-((2S,3R)-3-(cyclohexylmethoxy)-1-((3-(methylsulfonamido)-3-oxopropyl)amino)-1-oxobutan-2-yl)-2-((S)-2,2-dimethylcyclopropane-1-carbonyl)-2,6-diazaspiro[3.4]octane-8-carboxamide] | < 0.5 | > 20 |
| C=CCOC(=O)N1CCC2(CC1)CCN(C(=O)[C@@H](NC(=O)[C@@H]1CN(C(=O)c3cnn(Cc4ccccc4C(=O)O)c3)CC13CN(C(=O)C1(C(F)(F)F)CC1)C3)[C@@H](C)OCC13CCC(CC1)OC3)CC2 [Example I-7, 2-((4-((S)-8-(((2S,3R)-3-((2-oxabicyclo[2.2.2]octan-4-yl)methoxy)-1-(9-((allyloxy)carbonyl)-3,9-diazaspiro[5.5]undecan-3-yl)-1-oxobutan-2-yl)carbamoyl)-2-(1-(trifluoromethyl)cyclopropane-1-carbonyl)-2,6-diazaspiro[3.4]octane-6-carbonyl)-1H-pyrazol-1-yl)methyl)benzoic acid] | < 0.5 | > 20 |
| COC(=O)c1ccc([C@H](COCC23CCC(CC2)OC3)NC(=O)C2CN(C(=O)c3cnn(Cc4ccc(C#N)cc4)c3)CC23CN(C(=O)C2(C(F)(F)F)CC2)C3)cc1 (stereo partly drawn) [Example I-24, methyl 4-((1R)-2-((2-oxabicyclo[2.2.2]octan-4-yl)methoxy)-1-(6-(1-(4-cyanobenzyl)-1H-pyrazole-4-carbonyl)-2-(1-(trifluoromethyl)cyclopropane-1-carbonyl)-2,6-diazaspiro[3.4]octane-8-carboxamido)ethyl)benzoate] | 5 to 10 | > 20 |
| C[C@@H](OCC12CCC(CC1)OC2)[C@H](NC(=O)[C@@H]1CN(C(=O)c2cnn(Cc3ccccc3C(=O)O)c2)CC12CN(C(=O)C1(C(F)(F)F)CC1)C2)C(=O)N1CCN(Cc2ccc(C(F)(F)F)cc2)CC1 [Example I-14, 2-((4-((S)-8-(((2S,3R)-3-((2-oxabicyclo[2.2.2]octan-4-yl)methoxy)-1-oxo-1-(4-(4-(trifluoromethyl)benzyl)piperazin-1-yl)butan-2-yl)carbamoyl)-2-(1-(trifluoromethyl)cyclopropane-1-carbonyl)-2,6-diazaspiro[3.4]octane-6-carbonyl)-1H-pyrazol-1-yl)methyl)benzoic acid] | < 0.5 | > 20 |
| C[C@@H](OCC12CCC(CC1)OC2)[C@H](NC(=O)[C@@H]1CN(C(=O)c2cnn(Cc3ccc(C(F)(F)F)cc3)c2)CC12CN(C(=O)C1(C(F)(F)F)CC1)C2)C(=O)N1CCC(c2ccccc2C(=O)O)CC1 [Example I-3, 2-(1-(O-((2-oxabicyclo[2.2.2]octan-4-yl)methyl)-N—((S)-6-(1-(4-(trifluoromethyl)benzyl)-1H-pyrazole-4-carbonyl)-2-(1-(trifluoromethyl)cyclopropane-1-carbonyl)-2,6-diazaspiro[3.4]octane-8-carbonyl)-L-threonyl)piperidin-4-yl)benzoic acid] | < 0.5 | 0.5 to 5 |
| C[C@@H](OCC1(C(F)(F)F)CC1)[C@H](NC(=O)[C@@H]1CN(C(=O)c2cnn(Cc3ccc(C(F)(F)F)cc3)c2)CC12CN(C(=O)C1(C(F)(F)F)CC1)C2)C(=O)N1CCC(c2ccc(C(=O)O)cc2)CC1 [Example I-68, 4-(1-(N—((S)-6-(1-(4-(trifluoromethyl)benzyl)-1H-pyrazole-4-carbonyl)-2-(1-(trifluoromethyl)cyclopropane-1-carbonyl)-2,6-diazaspiro[3.4]octane-8-carbonyl)-O-((1-(trifluoromethyl)cyclopropyl)methyl)-L-threonyl)piperidin-4-yl)benzoic acid] | 0.5 to 5 | > 20 |

The next lines start with results.

| IC50 (CDK2/Cyclin E1) [µM] | Structure (SMILES) | IC50 (Kuramochi cells) [µM] |
| --- | --- | --- |
| > 10 | C[C@@H](OCC12CCC(CC1)OC2)[C@H](NC(=O)[C@@H]1CN(C(=O)c2cnc(O)cn2)CC12CN(C(=O)C1(C(F)(F)F)CC1)C2)C(=O)N1CCC(c2ccc(C(=O)O)c(C(F)(F)F)c2)CC1 [I-89 1st, 4-(1-(O-((2-oxabicyclo[2.2.2]octan-4-yl)methyl)-N—((S)-6-(5-hydroxypyrazine-2-carbonyl)-2-(1-(trifluoromethyl)cyclopropane-1-carbonyl)-2,6-diazaspiro[3.4]octane-8-carbonyl)-L-threonyl)piperidin-4-yl)-2-(trifluoromethyl)benzoic acid] | > 20 |
| < 0.5 | C[C@@H](OCC12CCC(CC1)OC2)[C@H](NC(=O)[C@@H]1CN(C(=O)c2cnc(O)cn2)CC12CN(C(=O)C1(C(F)(F)F)CC1)C2)C(=O)N1CCC(c2ccc(C(=O)O)c(C(F)(F)F)c2)CC1 [I-89 3rd, 4-(1-(O-((2-oxabicyclo[2.2.2]octan-4-yl)methyl)-N-(6-(5-hydroxypyrazine-2-carbonyl)-2-(1-(trifluoromethyl)cyclopropane-1-carbonyl)-2,6-diazaspiro[3.4]octane-8-carbonyl)-L-threonyl)piperidin-4-yl)-2-(trifluoromethyl)benzoic acid] | > 20 |
| 0.5 to 5 | C[C@@H](OCC12CCC(CC1)OC2)[C@@H](COC1CCOCC1)NC(=O)[C@@H]1CN(C(=O)c2cncs2)CC12CN(C(=O)C1(C(F)(F)F)CC1)C2 [Example I-113, (8S)—N-[(2R,3R)-3-{2-oxabicyclo[2.2.2]octan-4-ylmethoxy}-1-(oxan-4-yloxy)butan-2-yl]-6-(1,3-thiazole-5-carbonyl)-2-[1-(trifluoromethyl)cyclopropanecarbonyl]-2,6-diazaspiro[3.4]octane-8-carboxamide] | > 20 |
| < 0.5 | CCCN1CCC2(CC1)CCN(C(=O)C(NC(=O)C1CN(C(=O)c3cnn(Cc4ccccc4C(=O)O)c3)CC13CN(C(=O)C1(C(F)(F)F)CC1)C3)C(C)OCC13CCC(CC1)OC3)CC2 (stereo not drawn) [Example I-115] | > 20 |
| < 0.5 | Cc1cc(C2CCN(C(=O)[C@@H](NC(=O)[C@@H]3CN(C(=O)c4cnn(Cc5ccc(C(F)(F)F)cc5)c4)CC34CN(C(=O)C3(C(F)(F)F)CC3)C4)[C@@H](C)OCC34CCC(CC3)OC4)CC2)cc(C(F)(F)F)c1OCC(=O)O [Example I-104] | > 20 |
